Reference: patent publication US9408854B2, “Methods and systems for pharmacogenomic treatment of cardiovascular conditions” (ROSTAQUO S.P.A., priority 2009, dated 2016)

Test system: hypertensive patients
Test: Pharmacogenomic study: change of office systolic blood pressure (DSBP5_0) after 5 weeks of rostafuroxin vs placebo, by genotype
Type: in vivo, human
Conditions: for response (average blood pressure change): individuals carrying all core SNPs; for Delta DSBP5_0: therapy vs placebo
Experimental: A pharmacogenomic study was performed to ascertain the effect of genetic variations on an individual response to rostafuroxin. The sample for the pharmacogenomic study consisted of 342 individuals that were genotyped with the Human1M array from Illumina using Human1M Duo CHIP genotyping Bead Chip according to procedure described in [Ref. 10, 11, 12]. Among the individuals, 169 were administered the placebo treatment and 173 the active drug (rostafuroxin) in the first period (5 weeks) with demographics as in [Ref 13]. In particular, patients were randomized to one of the following oral doses of rostafuroxin: 0.05, 0.15, 0.5, 1.5, or 5 mg/day for 5 weeks. Each dose had to be compared to a placebo in a crossover design.
For the above sample of individuals a genetic association analysis, was performed to associate the phenotype of the tested individuals with the SNPs detected in the individuals. The selected phenotype of interest was the blood pressure response. The SNPs selected for detection were the 1111170 SNPs on autosomal chromosomes of the individual.
The genetic analysis was performed according to a quantitative genetic association design where the phenotype of interest is a quantitative variable (QT), and the variables (factors) affecting the distribution of the phenotype of interest are SNPs, therapy (placebo, rostafuroxin) and the SNP*therapy interaction.
In particular, the quantitative phenotype selected for the statistical analyses was the difference in mmHg between the office Systolic Blood Pressure (SBP) at the end of first treatment period (SBP_5) and the office Systolic Blood Pressure at baseline after one month of run-in (SBP_0) and is herein also identified as DSBP5_0. The selected QT phenotype and other factors affecting distribution of the phenotype of interest were then analyzed according to the following quantitative trait interaction test Phenotype=SNP+therapy+SNP*therapy as illustrated in further details below.
In particular, in Table 2 the descriptive statistics of DSBP5_0 for the entire sample and for the patients treated with placebo and rostafuroxin are listed. The rather modest basal level of SBP can be explained in view of the recruitment of patients with “mild” hypertension (SBP range 140-179 mmHg), required by the inclusion of a placebo arm.
Those SNPs were further selected to identify the genotypes with the largest response to rostafuroxin compared to placebo by performing a Statistical ANOVA analysis using STATA software in placebo and rostafuroxin with DSBP5_0 as dependent variable and the candidate significant SNPs as independent variables. In particular, to select the genotypes of the interactions between two SNPs with the largest response to rostafuroxin compared to placebo, the Applicants performed an ANOVA statistics in placebo and rostafuroxin with DSBP5_0 as dependent variable and the interaction s between SNPs as independent variables. The Applicants report an example of this procedure in FIG. 5: interaction between rs8899 and rs4678. The Applicants selected the interaction between the genotype AA of rs8899 and the genotype BB of rs4678 because it presents the greatest remarkable decrement in the therapy group and not in the placebo group.
In particular, to select the genotypes with the largest response to rostafuroxin compared to placebo, the Applicants performed an ANOVA statistics (oneway) in placebo and rostafuroxin with DSBP5_0 as dependent variable and the significant SNPs as independent variables.

[1] = GWS SNP rs9361863 (LOC728360) genotype 2
[2] = GWS SNP rs9893372 (ATP2A3) genotype 3
[3] = GWS SNP rs10159569 (SH3PXD2A) genotype 1
[4] = GWS SNP rs10493940 (SLC30A7) genotype 2
[5] = GWS SNP rs10493940 (SLC30A7) genotype 3
[6] = GWS SNP rs12513375 (TTC29) genotype 3
[7] = GWS SNP rs12996186 (ARL5A) genotype 2
[8] = GWS SNP rs16877182 (THSD7A) genotype 2
[9] = GWS SNP rs16893522 (FAM46A) genotype 1
[10] = GWS SNP rs16893522 (FAM46A) genotype 2
[11] = GWS SNP rs17414954 (VCAM1) genotype 2
[12] = individuals carrying the genetic variations
[13] = interaction ADD2 rs4984 CC x TOP rs10502933 CT
[14] = interaction HSD19 rs947130 GG x NEDD4L rs4309483 AA
[15] = interaction HSD19 rs947130 GG x NKAIN3 rs4739037 GA
[16] = interaction LSS2 rs914247 AA x ADD1 rs4961 GT + TT
[17] = interaction LSS2 rs914247 AA x WNK1 rs880054 AG + GG
[18] = interaction LSS2 rs914247 GA + AA x MDR2 rs1045642 CC
[19] = interaction MDR2 rs1045642 TT x AGTR1 rs2131127 CC
[20] = interaction MDR2 rs1045642 TT x HSD18 rs10923835 AT + TT

C[C@]12CC[C@H](O)C[C@H]1CC[C@@H]1[C@@H]2CC[C@]2(C)[C@@](O)(c3ccoc3)CC[C@]12O [rostafuroxin, 17β-(3-furyl)-5β-androstane-3β,14β,17α-triol]
DSBP5_0 therapy (GWS SNP rs9361863 (LOC728360) genotype 1): −15 mmHg | DELTA delta Therapy placebo [1]: 8.833 mmHg | DSBP5_0 therapy [1]: −13.48 mmHg | DELTA delta Therapy placebo [2]: 4.434 mmHg | DSBP5_0 therapy [2]: −10.91 mmHg | DELTA delta Therapy placebo [3]: 10.63 mmHg | DSBP5_0 therapy [3]: −13.17 mmHg | DELTA delta Therapy placebo [4]: 5.95 mmHg | DSBP5_0 therapy [4]: −12.13 mmHg | DELTA delta Therapy placebo [5]: 28.95 mmHg | DSBP5_0 therapy [5]: −25 mmHg | DELTA delta Therapy placebo [6]: 15.93 mmHg | DSBP5_0 therapy [6]: −19.18 mmHg | DELTA delta Therapy placebo [7]: 17.96 mmHg | DSBP5_0 therapy [7]: −22.79 mmHg | DELTA delta Therapy placebo [8]: 18.85 mmHg | DSBP5_0 therapy [8]: −21.67 mmHg | DELTA delta Therapy placebo [9]: 27.03 mmHg | DSBP5_0 therapy [9]: −22.43 mmHg | DELTA delta Therapy placebo [10]: 2.874 mmHg | DSBP5_0 therapy [10]: −1.138 mmHg | DELTA delta Therapy placebo [11]: 7.158 mmHg | DSBP5_0 therapy [11]: −13.03 mmHg | Mean fall in blood pressure mmHg (DSBP5_0) (all never previously treated (NPT) patients on therapy (99 IDs), 5 weeks, no genotype selection): −5.831 mmHg | DSBP5_0 therapy (carriers rs914247 (LSS2) AA (CAND 1 SNP)): −17 mmHg | DSBP5_0 therapy (carriers rs2345088 TT (Illumina genotype 1), NPT patients, 5 weeks): −30.5 mmHg | DSBP5_0 therapy (carriers rs2461911 AA (Illumina genotype 1), NPT patients, 5 weeks): −20.6 mmHg | DSBP5_0 therapy (carriers rs5013093 TT (Illumina genotype 1), NPT patients, 5 weeks): −20.49 mmHg | DSBP5_0 therapy (carriers rs12513375 TT (Illumina genotype 3), NPT patients, 5 weeks): −19.18 mmHg | DSBP5_0 therapy (carriers rs16877182 C/T (Illumina genotype 2), NPT patients, 5 weeks): −21.67 mmHg | DSBP5_0 therapy (carriers rs16893522 AA (Illumina genotype 1), NPT patients, 5 weeks): −22.43 mmHg | response (average blood pressure change) (high dosages): −15 mmHg | average decrease in systolic blood pressure (high doses (1.5; 5.0 mg/day), individuals carrying the genetic variations): −12 mmHg | average decrease in nightly blood pressure [12]: ≥ 9 mmHg | average decrease in office blood pressure [12]: at least 15 mmHg | DSBP50 ROSTAFUROXIN [13]: .−19.21 mmHg | Delta Rosta_placebo [13]: 24.73 mmHg | DSBP50 ROSTAFUROXIN [14]: .−17.85 mmHg | Delta Rosta_placebo [14]: 28.15 mmHg | DSBP50 ROSTAFUROXIN [15]: .−18.18 mmHg | Delta Rosta_placebo [15]: 15.72 mmHg | DSBP50 ROSTAFUROXIN [16]: .−22.32 mmHg | Delta Rosta_placebo [16]: 27.49 mmHg | DSBP50 ROSTAFUROXIN [17]: .−16 mmHg | Delta Rosta_placebo [17]: 16.48 mmHg | DSBP50 ROSTAFUROXIN [18]: .−16.91 mmHg | Delta Rosta_placebo [18]: 12.96 mmHg | DSBP50 ROSTAFUROXIN [19]: .−16.9 mmHg | Delta Rosta_placebo [19]: 14.34 mmHg | DSBP50 ROSTAFUROXIN [20]: .−17.40 mmHg | Delta Rosta_placebo [20]: 17.30 mmHg | response (average blood pressure change) (low dosages): −23 mmHg | average decrease in systolic blood pressure (lower doses (0.05; 0.15; 0.5 mg/day), individuals carrying the genetic variations): approximately 18 mmHg | Delta DSBP5_0 (carriers rs2345088 TT (genotype 1)): 33.93, mmHg | Delta DSBP5_0 (carriers rs2461911 AA (genotype 1)): 22.82, mmHg | Delta DSBP5_0 (carriers rs5013093 TT (genotype 1)): 22.09, mmHg | Delta DSBP5_0 (carriers rs12513375 TT (genotype 3)): 15.93, mmHg | Delta DSBP5_0 (carriers rs16877182 C/T (genotype 2)): 18.85, mmHg | Delta DSBP5_0 (carriers rs16893522 AA (genotype 1)): 27.03, mmHg | tolerability and quality of life (treated individuals, trial results): good tolerability and quality of life
